Data on 31 compounds can be found in patent US20230123334A1, “AMINO LIPID COMPOUND, PREPARATION METHOD THEREFOR, AND APPLICATION THEREOF” (SHENZHEN SHENXIN BIOTECHNOLOGY CO., LTD., priority 2020, published 2023).

Each structure is given as a SMILES string.

For experiment [1], the system named is HEK293 cells. The experiment can be described thus: Preliminary screening as mRNA vectors, EGFP mRNA transfection of HEK293 cells. The format is cell-based. To be noted: HEK293 cells, 96-well plates, EGFP mRNA 50 ng per well; percentage of GFP fluorescent cells relative to total number of cells (Hoechst). The gist of the method:
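Screening format: EGFP mRNA transfection (50 ng/well) into HEK293 in 10% FBS-supplemented DMEM. Percent green fluorescent cells, normalised to Hoechst nuclear count, gave the value; Lipofectamine2000 was the reference transfectant.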

In experiment [2] the test system is HEK293 cells. The experiment can be described thus: Preliminary screening as DNA vectors, GFP transfection of HEK293 cells. The conditions noted are these: HEK293 cells; lipid/DOPE liposome with 75 ng plasmid DNA (psin-EGFP-IRES-Puro); number of cells expressing GFP divided by total number of nuclei (Hoechst). It counts as cell-based. Summed up:
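First, amino lipid and DOPE were vortexed in sodium acetate buffer (pH 5.6) to form liposomes. Next, these were held with 75 ng EGFP plasmid at room temperature for 30 min. Finally, HEK293 cells were added, cultured at 37° C., Hoechst-stained, and GFP+/total nuclei scored by imaging.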

Take `CCCCCCCCCCCCCNc1nc(NCCCCCCCCCCCC)nc(NCCN(CC)CC)n1` [Compound N12N13D7]: the “Absolute mRNA transfection efficiency in HEK293 cells” value (shortened to “Absolute mRNA transfection efficiency”) in the experiment with HEK293 cells [1] worked out at 0.3%. For the same compound, the “Absolute DNA transfection efficiency in HEK293 cells” value (“Absolute DNA transfection efficiency” below) in the experiment on HEK293 cells [2] was 0.2%.
On the same counts, the results for `CCCCCCCCCCCCCNc1nc(NCCCCCCCCCCCC)nc(NCCCN2CCOCC2)n1` [Compound N12N13D8] are 0.0% and 0.3%.
For `CCCCCCCCCCCCCNc1nc(NCCCCCCCCCCCC)nc(NCCCN2CCN(C)CC2)n1` [Compound N12N13D9], in that order: 1.8% and 0.3%.
On the same counts, the results for `CCCCCCCCCCCCCNc1nc(NCCCCCCCCCCCC)nc(NCC2CCN(C)CC2)n1` [Compound N12N13D10] are 0.2% and 0.2%.
`CCCCCCCCCCCCCCCNc1nc(NCCCCCCCCCCCC)nc(NCCN(C)C)n1` [Compound N12N15D1]: the “Absolute mRNA transfection efficiency” value with HEK293 cells [1] was found to be 1.0%. Besides, the “Absolute DNA transfection efficiency” value in the experiment with HEK293 cells [2] worked out at 1.5%.
As for `CCCCCCCCCCCCCCCNc1nc(NCCCCCCCCCCCC)nc(NCCN2CCOCC2)n1` [Compound N12N15D2], the “Absolute mRNA transfection efficiency” value in the experiment with HEK293 cells [1] is on record as 0.4%. For the same compound, the “Absolute DNA transfection efficiency” value in the experiment with HEK293 cells [2] is 0.3%.
For `CCCCCCCCCCCCCCCNc1nc(NCCCCCCCCCCCC)nc(NCCN2CCCC2)n1` [Compound N12N15D3], in that order: 6.5% and 1.1%.
As for `CCCCCCCCCCCCCCCNc1nc(NCCCCCCCCCCCC)nc(NCCN2CCCCC2)n1` [Compound N12N15D4], the “Absolute mRNA transfection efficiency” value with HEK293 cells [1] is on record as 1.3%. In the experiment with HEK293 cells [2], the “Absolute DNA transfection efficiency” value is on record as 1.4%.
Consider `CCCCCCCCCCCCCCCNc1nc(NCCCCCCCCCCCC)nc(NCCN2CCN(C)CC2)n1` [Compound N12N15D5], for which the “Absolute mRNA transfection efficiency” value with HEK293 cells [1] is 3.1%. The “Absolute DNA transfection efficiency” value in the experiment with HEK293 cells [2] is given as 0.4%.
For the compound `CCCCCCCCCCCCCCCNc1nc(NCCCCCCCCCCCC)nc(NCCCN(C)C)n1` [Compound N12N15D6], the “Absolute mRNA transfection efficiency” value in the experiment on HEK293 cells [1] was determined as 2.3%. Moreover, the “Absolute DNA transfection efficiency” value in the experiment with HEK293 cells [2] was 0.9%.
For `CCCCCCCCCCCCCCCNc1nc(NCCCCCCCCCCCC)nc(NCCN(CC)CC)n1` [Compound N12N15D7], in that order: 1.4% and 0.8%.
On the same counts, the results for `CCCCCCCCCCCCCCCNc1nc(NCCCCCCCCCCCC)nc(NCCCN2CCOCC2)n1` [Compound N12N15D8] are 0.9% and 1.4%.
On to `CCCCCCCCCCCCCCCNc1nc(NCCCCCCCCCCCC)nc(NCCCN2CCN(C)CC2)n1` [Compound N12N15D9], for which the “Absolute mRNA transfection efficiency” value with HEK293 cells [1] is given as 0.9%. Also, the “Absolute DNA transfection efficiency” value in the experiment with HEK293 cells [2] was determined as 1.5%.
For `CCCCCCCCCCCCCCCNc1nc(NCCCCCCCCCCCC)nc(NCC2CCN(C)CC2)n1` [Compound N12N15D10], in that order: 1.2% and 0.7%.
For `CCCCCCCCCCCCCCCCNc1nc(NCCCCCCCCCCCC)nc(NCCN(C)C)n1` [Compound N12N16D1], the “Absolute mRNA transfection efficiency” value in the experiment on HEK293 cells [1] is given as 4.4%. Also, the “Absolute DNA transfection efficiency” value in the experiment on HEK293 cells [2] is 2.6%.
On the same counts, the results for `CCCCCCCCCCCCCCCCNc1nc(NCCCCCCCCCCCC)nc(NCCN2CCOCC2)n1` [Compound N12N16D2] are 0.0% and 0.9%.
Regarding `CCCCCCCCCCCCCCCCNc1nc(NCCCCCCCCCCCC)nc(NCCN2CCCC2)n1` [Compound N12N16D3], the “Absolute mRNA transfection efficiency” value with HEK293 cells [1] came to 3.3%. The “Absolute DNA transfection efficiency” value in the experiment on HEK293 cells [2] is 1.2%.
Regarding `CCCCCCCCCCCCCCCCNc1nc(NCCCCCCCCCCCC)nc(NCCN2CCCCC2)n1` [Compound N12N16D4], the “Absolute mRNA transfection efficiency” value in the experiment with HEK293 cells [1] is 0.7%. In addition, in the experiment on HEK293 cells [2], the “Absolute DNA transfection efficiency” value is 1.2%.
Regarding `CCCCCCCCCCCCCCCCNc1nc(NCCCCCCCCCCCC)nc(NCCN2CCN(C)CC2)n1` [Compound N12N16D5], in the experiment with HEK293 cells [1], the “Absolute mRNA transfection efficiency” value is 1.4%. For the same compound, in the experiment with HEK293 cells [2], the “Absolute DNA transfection efficiency” value was determined as 0.1%.
`CCCCCCCCCCCCCCCCNc1nc(NCCCCCCCCCCCC)nc(NCCCN(C)C)n1` [Compound N12N16D6]: the “Absolute mRNA transfection efficiency” value in the experiment with HEK293 cells [1] came out at 1.9%. For the same compound, the “Absolute DNA transfection efficiency” value in the experiment with HEK293 cells [2] was found to be 1.9%.
On to `CCCCCCCCCCCCCCCCNc1nc(NCCCCCCCCCCCC)nc(NCCN(CC)CC)n1` [Compound N12N16D7], for which, in the experiment on HEK293 cells [1], the “Absolute mRNA transfection efficiency” value came to 0.3%. For the same compound, the “Absolute DNA transfection efficiency” value in the experiment on HEK293 cells [2] worked out at 0.4%.
In the case of `CCCCCCCCCCCCCCCCNc1nc(NCCCCCCCCCCCC)nc(NCCCN2CCOCC2)n1` [Compound N12N16D8], the “Absolute mRNA transfection efficiency” value with HEK293 cells [1] was determined as 0.9%. Further, in the experiment with HEK293 cells [2], the “Absolute DNA transfection efficiency” value is reported as 0.7%.
In the case of `CCCCCCCCCCCCCCCCNc1nc(NCCCCCCCCCCCC)nc(NCCCN2CCN(C)CC2)n1` [Compound N12N16D9], the “Absolute mRNA transfection efficiency” value in the experiment with HEK293 cells [1] was 0.7%. Further, the “Absolute DNA transfection efficiency” value with HEK293 cells [2] is reported as 0.9%.
`CCCCCCCCCCCCCCCCNc1nc(NCCCCCCCCCCCC)nc(NCC2CCN(C)CC2)n1` [Compound N12N16D10]: the “Absolute mRNA transfection efficiency” value with HEK293 cells [1] is reported as 0.6%. In addition, the “Absolute DNA transfection efficiency” value with HEK293 cells [2] is 0.0%.
For `CCCCCCCCCCCCCCCCCCNc1nc(NCCCCCCCCCCCC)nc(NCCN(C)C)n1` [Compound N12N18D1], in that order: 9.4% and 1.4%.
On the same counts, the results for `CCCCCCCCCCCCCCCCCCNc1nc(NCCCCCCCCCCCC)nc(NCCN2CCOCC2)n1` [Compound N12N18D2] are 0.9% and 0.6%.
For `CCCCCCCCCCCCCCCCCCNc1nc(NCCCCCCCCCCCC)nc(NCCN2CCCC2)n1` [Compound N12N18D3], in that order: 13.4% and 3.5%.
On to `CCCCCCCCCCCCCCCCCCNc1nc(NCCCCCCCCCCCC)nc(NCCN2CCCCC2)n1` [Compound N12N18D4], for which the “Absolute mRNA transfection efficiency” value in the experiment on HEK293 cells [1] is listed as 1.9%. Besides, the “Absolute DNA transfection efficiency” value in the experiment on HEK293 cells [2] stood at 0.9%.
On the same counts, the results for `CCCCCCCCCCCCCCCCCCNc1nc(NCCCCCCCCCCCC)nc(NCCN2CCN(C)CC2)n1` [Compound N12N18D5] are 1.9% and 0.0%.
On the same counts, the results for `CCCCCCCCCCCCCCCCCCNc1nc(NCCCCCCCCCCCC)nc(NCCCN(C)C)n1` [Compound N12N18D6] are 4.8% and 1.5%.
For `CCCCCCCCCCCCCCCCCCNc1nc(NCCCCCCCCCCCC)nc(NCCN(CC)CC)n1` [Compound N12N18D7], the “Absolute mRNA transfection efficiency” value in the experiment with HEK293 cells [1] worked out at 1.4%. Further, in the experiment with HEK293 cells [2], the “Absolute DNA transfection efficiency” value came out at 1.2%.
